Measured values from US8394787B2, “7-aza-spiro[3.5]nonane-7-carboxylate derivatives, preparation thereof and therapeutic use thereof” (Sanofi, priority 2009, dated 2013).
Where a name gives a salt, the structure may show the parent alone.

| melting point [°C] | Compound |
| --- | --- |
| 86 to 88 | O=C(OCc1cscn1)N1CCC2(CC1)CC(Oc1ccc(Cl)cc1)C2 |
| 163 to 165 | Cn1ncnc1COC(=O)N1CCC2(CC1)CC(Oc1ccc(Cl)cc1)C2 (as salt: HCl) |
| 94 to 97 | CNC(=O)c1cc(COC(=O)N2CCC3(CC(Oc4ccc(Cl)cc4)C3)C2)on1 (single isomer, unassigned) |
| 90 to 92 | NC(=O)c1coc(COC(=O)N2CCC3(CC(Oc4cccc(C(F)(F)F)c4)C3)C2)n1 (single isomer, unassigned) [Compound 14, 4-carbamoyl-oxazol-2-ylmethyl 2-(3-trifluoromethylphenoxy)-6-aza-spiro[3.4]octane-6-carboxylate] |
| 83 to 92 | NC(=O)c1cc(COC(=O)N2CCC3(CC(Oc4ccc(Cl)c(F)c4)C3)C2)on1 (single isomer, unassigned) [Compound 26, 3-carbamoyl-isoxazol-5-ylmethyl 2-(4-chloro-3-fluorophenoxy)-6-aza-spiro[3.4]octane-6-carboxylate] |
| 131 to 133 | NC(=O)c1cc(COC(=O)N2CCC3(CC(Oc4ccc(-c5ccc(F)cc5)cc4)C3)C2)on1 (single isomer, unassigned) [Compound 28, 3-carbamoyl-isoxazol-5-ylmethyl 2-(4′-fluorobiphenyl-4-yloxy)-6-aza-spiro[3.4]octane-6-carboxylate] |
| 149 to 150 | NC(=O)c1cc(COC(=O)N2CCC3(CC(Oc4ccc(Cl)c5ccccc45)C3)C2)on1 (single isomer, unassigned) [Compound 30, 3-carbamoyl-isoxazol-5-ylmethyl 2-(4-chloronaphthalen-1-yloxy)-6-aza-spiro[3.4]octane-6-carboxylate] |
| 87 to 92 | CNC(=O)c1cc(COC(=O)N2CCC3(CC(Oc4ccc(Cl)c5ccccc45)C3)C2)on1 (single isomer, unassigned) [Compound 31, 3-methylcarbamoyl-isoxazol-5-ylmethyl 2-(4-chloronaphthalen-1-yloxy)-6-aza-spiro[3.4]octane-6-carboxylate] |
| 147 to 149 | CNC(=O)c1cc(COC(=O)N2CCC3(CC2)CC(Oc2ccc(Cl)cc2)C3)on1 [Compound 3, 3-methylcarbamoyl-isoxazol-5-ylmethyl 2-(4-chlorophenoxy)-7-aza-spiro[3.5]nonane-7-carboxylate] |
| 70 to 72 | NC(=O)c1cc(COC(=O)N2CCC3(CC2)CC(Oc2ccc(Cl)cc2)C3)on1 [Compound 4, 3-carbamoyl-isoxazol-5-ylmethyl 2-(4-chlorophenoxy)-7-aza-spiro[3.5]nonane-7-carboxylate] |
| 73 to 75 | CCOc1ccc2ccc(OC3CC4(CCN(C(=O)OCc5cc(C(=O)NC)no5)CC4)C3)cc2c1 [Compound 8, 3-methylcarbamoyl-isoxazol-5-ylmethyl 2-(7-ethoxynaphthalen-2-yloxy)-7-aza-spiro[3.5]nonane-7-carboxylate] |
| 74 to 76 | NC(=O)c1cc(COC(=O)N2CCC3(CC2)CC(Oc2cccc(-c4ccc(F)cc4)c2)C3)on1 [Compound 12, 3-carbamoyl-isoxazol-5-ylmethyl 2-(4′-fluorobiphenyl-3-yloxy)-7-aza-spiro[3.5]nonane-7-carboxylate] |
| 114 to 116 | CCOc1ccc2ccc(OC3CC4(CCN(C(=O)OCc5cc(C(N)=O)no5)CC4)C3)cc2c1 [Compound 13, 3-carbamoyl-isoxazol-5-ylmethyl 2-(7-ethoxynaphthalen-2-yloxy)-7-aza-spiro[3.5]nonane-7-carboxylate] |
| 75 to 77 | NC(=O)c1cc(COC(=O)N2CCC3(CC2)CC(Oc2ccc(Cl)c4ccccc24)C3)on1 [Compound 16, 3-carbamoyl-isoxazol-5-ylmethyl 2-(4-chloronaphthalen-1-yloxy)-7-aza-spiro[3.5]nonane-7-carboxylate] |
| 62 to 64 | CNC(=O)c1cc(COC(=O)N2CCC3(CC2)CC(Oc2ccc(Cl)c4ccccc24)C3)on1 [Compound 17, 3-methylcarbamoyl-isoxazol-5-ylmethyl 2-(4-chloronaphthalen-1-yloxy)-7-aza-spiro[3.5]nonane-7-carboxylate] |
| 163 to 165 | NC(=O)c1cc(COC(=O)N2CCC3(CC2)CC(Oc2ccc(-c4ccc(F)cc4)cc2)C3)on1 [Compound 18, 3-carbamoyl-isoxazol-5-ylmethyl 2-(4′-fluorobiphenyl-4-yloxy)-7-aza-spiro[3.5]nonane-7-carboxylate] |
| 130 to 132 | CNC(=O)c1csc(COC(=O)N2CCC3(CC2)CC(Oc2cccc(-c4ccc(F)cc4)c2)C3)n1 [Compound 20, 4-methylcarbamoyl-thiazol-2-ylmethyl 2-(4′-fluorobiphenyl-3-yloxy)-7-aza-spiro[3.5]nonane-7-carboxylate] |
| 79 to 81 | CNC(=O)c1cc(COC(=O)N2CCC3(CC2)CC(Oc2ccc4ccncc4c2)C3)on1 [Compound 21, 3-methylcarbamoyl-isoxazol-5-ylmethyl 2-(isoquinolin-7-yloxy)-7-aza-spiro[3.5]nonane-7-carboxylate] |
| 107 to 108 | CNC(=O)c1cc(COC(=O)N2CCC3(CC2)CC(Oc2ccc(Cl)c(F)c2)C3)on1 [Compound 22, 3-methylcarbamoyl-isoxazol-5-ylmethyl 2-(4-chloro-3-fluorophenoxy)-7-aza-spiro[3.5]nonane-7-carboxylate] |
| 84 to 86 | CNC(=O)c1cc(COC(=O)N2CC3(CC(Oc4ccc(Cl)c(F)c4)C3)C2)on1 [Compound 23, 3-methylcarbamoyl-isoxazol-5-ylmethyl 6-(4-chloro-3-fluorophenoxy)-2-aza-spiro[3.3]heptane-2-carboxylate] |
| 135 to 137 | NC(=O)c1cc(COC(=O)N2CC3(CC(Oc4ccc(Cl)c(F)c4)C3)C2)on1 [Compound 24, 3-carbamoyl-isoxazol-5-ylmethyl 6-(4-chloro-3-fluorophenoxy)-2-aza-spiro[3.3]heptane-2-carboxylate] |
